# According to patent US20030170250A1, “Local delivery of long lasting therapeutic agents” (priority 1998, published 2003):
# System: carotid artery
# Experiment: In vivo addition of NHS-Rhodamine: local incubation in isolated carotid artery chamber, fluorescence of the artery
# Design: species or system New Zealand rabbits
# Conditions: 100 μl of 500 μM, 3 minutes incubation in 1-cm chamber, washed with 0.9% sodium chloride
# Method: Both carotid arteries were isolated and blood flows were measured. A catheter (22G) was inserted in the arterial segment and rinsed with 0.9% sodium chloride via catheter until there was no more visible evidence of blood in the segment.
# A 1-cm incubation chamber was created by ligatures in the segment area. The incubation chamber was flushed three times with 1 mL of 0.9% sodium chloride. A solution of 100 μl of 500 μM NHS-Rhodamine was prepared and incubated in the incubation chamber for 3 minutes. The excess of rhodamine was withdrawn with a 1 mL syringue. The incubation chamber was washed once again with 3 times […] of 0.9% sodium chloride. The incubation chamber was then removed from the rabbit, cut in three pieces and dipped in 10% formalin for further evaluation.
substance,measurement,value
Rhodamine,fluorescence of treated arteries,little fluorescence over background
"Rhodamine Green™-X, succinimidyl ester, hydrochloride mixed isomers [NHS-Rhodamine]",fluorescence of treated arteries,dramatic levels of fluorescence
